Data taken from US7410975B2, “Small molecule toll-like receptor (TLR) antagonists” (Coley Pharmaceutical Group, Inc., priority 2003, dated 2008).
Structures can show the parent of a compound that is named as a salt.

The compounds below were run against T1, human TLR8 (hTLR8) (Homo sapiens, UniProt Q9NR97) (assay: Antagonist screen, hTLR8-NFκB-293 cells, NF-κB-luciferase reporter, with EC50 of R848). Details: compound at 0.5, 5, 50 μg/ml; EC50 concentration of R848; 16 h; NF-κB-luciferase.
T1 construct: expressed in transfected cells
T1 sequence (Q9NR97 27-1041): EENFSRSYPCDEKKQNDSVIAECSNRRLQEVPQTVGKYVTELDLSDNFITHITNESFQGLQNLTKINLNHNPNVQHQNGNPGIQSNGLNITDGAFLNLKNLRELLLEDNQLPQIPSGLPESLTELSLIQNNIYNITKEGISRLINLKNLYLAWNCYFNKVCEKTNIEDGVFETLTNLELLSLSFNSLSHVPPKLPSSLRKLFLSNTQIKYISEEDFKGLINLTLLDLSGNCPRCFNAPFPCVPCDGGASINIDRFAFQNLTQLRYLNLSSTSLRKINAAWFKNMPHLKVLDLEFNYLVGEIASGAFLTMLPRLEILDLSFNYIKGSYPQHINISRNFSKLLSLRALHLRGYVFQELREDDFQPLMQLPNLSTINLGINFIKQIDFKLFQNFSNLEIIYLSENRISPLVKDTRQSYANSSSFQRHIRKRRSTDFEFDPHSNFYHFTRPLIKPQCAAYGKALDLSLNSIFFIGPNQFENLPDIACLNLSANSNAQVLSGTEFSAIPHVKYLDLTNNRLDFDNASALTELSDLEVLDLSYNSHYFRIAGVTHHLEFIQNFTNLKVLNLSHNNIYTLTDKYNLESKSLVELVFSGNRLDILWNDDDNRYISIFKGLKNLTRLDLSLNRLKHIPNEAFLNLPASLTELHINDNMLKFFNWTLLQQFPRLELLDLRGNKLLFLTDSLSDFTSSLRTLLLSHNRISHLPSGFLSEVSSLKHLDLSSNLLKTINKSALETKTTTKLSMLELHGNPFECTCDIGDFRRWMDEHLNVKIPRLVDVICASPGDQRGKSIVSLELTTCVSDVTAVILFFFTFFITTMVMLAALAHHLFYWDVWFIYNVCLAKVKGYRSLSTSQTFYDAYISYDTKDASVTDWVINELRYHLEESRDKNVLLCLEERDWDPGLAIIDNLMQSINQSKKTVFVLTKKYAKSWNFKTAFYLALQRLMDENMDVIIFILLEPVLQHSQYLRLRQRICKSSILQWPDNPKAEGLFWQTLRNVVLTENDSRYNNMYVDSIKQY
Assay type: cell-based
Protocol: The method is described in greater detail as follows. The cells for each individual cell clone (hTLR3-NFκB-293, hTLR7-NFκB-293, hTLR8-NFκB-293 and hTLR9-NFκB-293) were counted and seeded one day before the stimulation at 1.5×10^4 cells per well in 96-well cell culture plates. To become adherent the cells were incubated after seeding overnight at 37° C. in 5% CO2 humidified air.
The screen for each compound was performed at the same time for all of the receptors TLR3, TLR7, TLR8 and TLR9. Up to fifteen test compounds, each assayed in duplicate at each of three different final concentrations (0.5 μg/ml, 5 μg/ml, and 50 μg/ml), were used for 16 h cell stimulation on a single multiwell culture plate. A 4× final concentration master plate was created to prepare the different test compounds before they were added to the cells.
Controls were added as duplicates individually for each cell clone on the cell culture plate. Positive controls were used as follows (final concentrations): 50 μg/ml poly(I:C) for hTLR3-NFκB-293; 8 μM resiquimod (R848) for hTLR7-NFκB-293; 30 μM R848 for hTLR8-NFκB-293; and 2.5 μM CpG-ODN 2006 for hTLR9-NFκB-293. Media alone was used as negative control. After addition of controls and small molecules, the cell clones were additionally stimulated with the EC50 concentration of the appropriate receptor-specific ligand.
The mean value of wells H2 and H5 (each with cells and EC50 concentration of the appropriate receptor-specific ligand) divided by the mean of wells H3 and H6 (each with cells alone) yielded the baseline response (i.e., fold induction of luciferase activity) to EC50 concentration of the appropriate receptor-specific ligand.
After 16 h stimulation the supernatant was removed and the cells treated with lysis buffer and stored at −80° C. before measuring.
For each screen result a graphical documentation was performed.
The baseline result (measured with addition of the EC50 concentration of the receptor-specific ligand) for each cell culture plate was measured as described above. Antagonistic effects were measured by down regulation compared to the baseline. Antagonists were scored as follows: • 13: compounds for which there was clear down regulation at 0.5 μg/ml, 5 μg/ml, and 50 μg/ml; • 12: compounds for which there was clear down regulation at 5 μg/ml and 50 μg/ml; • 11: compounds for which there was clear down regulation only at 50 μg/ml; • —: compounds for which there was no clear down regulation even at 50 μg/ml. Agonists
Results were expressed as fold induction over baseline luciferase activity measured in the absence of R848. […] Additional screening was performed in like manner using additional small molecules selected from another library or specifically prepared for this purpose. Scoring is reported as above but as applied to TLR8.

SMILES	hTLR8 (inhibitory effect, antagonist score)
COC(=O)C1=CO[C@@H](C)[C@@H]2CN3CCc4c([nH]c5ccccc45)[C@@H]3C[C@H]12 [compound 593, Tetrahydroalstonine]	— (compounds for which there was no clear down regulation even at 50 μg/ml)
CC[C@]12CCCN3CCc4c(n(c5ccccc45)C(=O)C1)[C@@H]32 [compound 607, Eburnamonine]	— (compounds for which there was no clear down regulation even at 50 μg/ml)
Cc1nccc2c1[nH]c1cc(O)ccc12.Cl [compound 612, Harmol hydrochloride monohydrate]	11 (compounds for which there was clear down regulation only at 50 μg/ml)
COc1ccc2c(c1)[nH]c1c(C)nccc12.Cl [compound 613, harmine hydrochloride]	13 (compounds for which there was clear down regulation at 0.5 μg/ml, 5 μg/ml, and 50 μg/ml)
Cc1c2ccncc2c(C)c2c1[nH]c1ccccc12 [compound 614, Ellipticine]	11 (compounds for which there was clear down regulation only at 50 μg/ml)
Cc1nccc2c1[nH]c1ccccc12 [compound 620, Harmane hydrochloride]	— (compounds for which there was no clear down regulation even at 50 μg/ml)
COc1ccc2[nH]c3c(c2c1)CCN=C3C [compound 621, Methoxy-6-harmalan]	— (compounds for which there was no clear down regulation even at 50 μg/ml)
CC[C@]12CCCN3CCc4c(n(c5ccccc45)[C@](O)(C(=O)OC)C1)[C@@H]32 [compound 636, Epivincamine]	— (compounds for which there was no clear down regulation even at 50 μg/ml)
Cl.Cl.c1ccc2c3c([nH]c2c1)C1C2CCC(C4CCCNC42)N1CC3 (stereo not shown) [compound 685, Nitrarine dihydorchloride]	— (compounds for which there was no clear down regulation even at 50 μg/ml)
CN(C)CCCN1c2ccccc2Sc2ccccc21.Cl [compound 693, Promazinehydrochloride]	— (compounds for which there was no clear down regulation even at 50 μg/ml)
CN1CCC(OC(c2ccccc2)c2ccccc2)CC1.Cl [compound 707, Diphenylpyralinehydrochloride]	— (compounds for which there was no clear down regulation even at 50 μg/ml)
CCCC(C(=O)OCCN(CC)CC)(c1ccccc1)c1ccccc1.Cl [compound 778, Proadifen hydrochloride]	11 (compounds for which there was clear down regulation only at 50 μg/ml)
Cl.Clc1ccc(C(OCCN2CCCCC2)c2ccccc2)cc1 (stereo not shown) [compound 793, Cloperastinehydrochloride]	— (compounds for which there was no clear down regulation even at 50 μg/ml)
COc1ccc2c(c1)N(CC(C)CN(C)C)c1ccccc1S2.O=C(O)/C=C\C(=O)O (stereo not shown) [compound 797, Methotrimeprazinemaleat salt]	11 (compounds for which there was clear down regulation only at 50 μg/ml)
CS(=O)(=O)O.OC(CCN1CCCCC1)(c1ccccc1)c1ccccc1 [compound 799, Pridinolmethanesulfonate salt]	— (compounds for which there was no clear down regulation even at 50 μg/ml)
C[N+]12CCC(CC1)C(OC(=O)C(O)(c1ccccc1)c1ccccc1)C2.[Br-] (stereo not shown) [compound 822, Clidinium bromide]	— (compounds for which there was no clear down regulation even at 50 μg/ml)

SMILES	hTLR8 (inhibitory effect, antagonist score)
Clc1ccc(C(c2ccccc2Cl)C(Cl)Cl)cc1 (stereo not shown) [compound 833, Mitotane]	11 (compounds for which there was clear down regulation only at 50 μg/ml)
CCN(CC)C(C)CN1c2ccccc2Sc2ccccc21.Cl (stereo not shown) [compound 840, Ethopropazinehydrochloride]	11 (compounds for which there was clear down regulation only at 50 μg/ml)
CC(CN(C)C)CN1c2ccccc2Sc2ccccc21.CC(CN(C)C)CN1c2ccccc2Sc2ccccc21.O=C(O)C(O)C(O)C(=O)O (stereo not shown) [compound 842, Trimeprazine tartrate]	11 (compounds for which there was clear down regulation only at 50 μg/ml)
COC(=O)[C@H]1[C@H]2C[C@@H]3c4[nH]c5cc(OC)ccc5c4CCN3C[C@H]2C[C@@H](OC(=O)c2cc(OC)c(OC)c(OC)c2)[C@@H]1OC [compound 875, Reserpine]	— (compounds for which there was no clear down regulation even at 50 μg/ml)
OCc1cc2c(cn1)[nH]c1ccccc12 [compound 878, 3-hydroxymethyl-beta-carboline]	— (compounds for which there was no clear down regulation even at 50 μg/ml)
O=C(O)c1cc(C(c2ccc(O)c(C(=O)O)c2)C(Cl)(Cl)Cl)ccc1O [compound 884]	11 (compounds for which there was clear down regulation only at 50 μg/ml)
CN(CCO)C(=O)c1cccc2c1-c1ccccc1C2=O [compound 890]	11 (compounds for which there was clear down regulation only at 50 μg/ml)
COC(=O)c1cccc2c1-c1ccccc1/C2=N/O [compound 904]	13 (compounds for which there was clear down regulation at 0.5 μg/ml, 5 μg/ml, and 50 μg/ml)
O=C(O)c1ccccc1NC1CC=CC2=C1C(=O)c1ccccc1C2=O (stereo not shown) [compound 917]	— (compounds for which there was no clear down regulation even at 50 μg/ml)
O=C(O)c1cccc2c1/C(=N/O)c1ccccc1-2 [compound 918]	— (compounds for which there was no clear down regulation even at 50 μg/ml)
CCCCOC(=O)c1cc([N+](=O)[O-])cc2c1-c1cc(CO)c([NH+]([O-])O)cc1C2=C(C#N)C#N (stereo not shown) [compound 939]	— (compounds for which there was no clear down regulation even at 50 μg/ml)
O=C(O)c1cccc2c1-c1ccccc1/C2=N/Nc1ccc([N+](=O)[O-])cc1[N+](=O)[O-] [compound 944]	— (compounds for which there was no clear down regulation even at 50 μg/ml)
C=CCc1ccccc1OC1(c2ccccc2)OC(=O)c2ccccc21 (stereo not shown) [compound 957]	— (compounds for which there was no clear down regulation even at 50 μg/ml)
COC(=O)c1ccc(C2CC(=O)Nc3c2ccc2ccccc32)cc1 (stereo not shown) [compound 965]	— (compounds for which there was no clear down regulation even at 50 μg/ml)
O=C(O)c1ccc(C2(c3ccc(C(=O)O)cc3)OC(=O)c3ccccc32)cc1 [compound 970]	— (compounds for which there was no clear down regulation even at 50 μg/ml)
